Laboratory results published in US7517874B2 (priority 2007, dated 2009).
pEC50: −log10 of the molar value.

Experiments:
[1] = molecular target: human CB1 receptor (hCB1) (Homo sapiens, UniProt P21554); test: cell-based; format: cell-based; settings: for +/− HCB1: agonist or inverse agonist at hCB1
Procedure, shortened: (§1)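 Agonism or inverse agonism was assessed as change in intracellular cAMP in CHO-K1 cells expressing human CB1 or rat CB2 (genomic DNA, pcDNA3.1).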

rat CB2 receptor (rCB2) = molecular target: T1, rat CB2 receptor (rCB2) (Rattus norvegicus, UniProt Q9QZN9); test: cell-based; format: cell-based; settings: for +/− RCB2: agonist or inverse agonist at rCB2
T1 sequence (Q9QZN9 1-360): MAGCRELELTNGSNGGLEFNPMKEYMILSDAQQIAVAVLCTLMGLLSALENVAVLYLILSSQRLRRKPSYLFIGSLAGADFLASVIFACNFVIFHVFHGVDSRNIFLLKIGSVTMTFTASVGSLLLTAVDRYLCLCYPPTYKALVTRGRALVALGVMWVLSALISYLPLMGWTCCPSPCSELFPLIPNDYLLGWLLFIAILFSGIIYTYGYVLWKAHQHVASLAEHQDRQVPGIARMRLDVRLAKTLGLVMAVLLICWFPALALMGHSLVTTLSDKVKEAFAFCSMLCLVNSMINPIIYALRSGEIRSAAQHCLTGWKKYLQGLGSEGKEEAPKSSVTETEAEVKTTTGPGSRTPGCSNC
Procedure, shortened: as §1

human CB1 receptor (hCB1), sequence (P21554 whole entry): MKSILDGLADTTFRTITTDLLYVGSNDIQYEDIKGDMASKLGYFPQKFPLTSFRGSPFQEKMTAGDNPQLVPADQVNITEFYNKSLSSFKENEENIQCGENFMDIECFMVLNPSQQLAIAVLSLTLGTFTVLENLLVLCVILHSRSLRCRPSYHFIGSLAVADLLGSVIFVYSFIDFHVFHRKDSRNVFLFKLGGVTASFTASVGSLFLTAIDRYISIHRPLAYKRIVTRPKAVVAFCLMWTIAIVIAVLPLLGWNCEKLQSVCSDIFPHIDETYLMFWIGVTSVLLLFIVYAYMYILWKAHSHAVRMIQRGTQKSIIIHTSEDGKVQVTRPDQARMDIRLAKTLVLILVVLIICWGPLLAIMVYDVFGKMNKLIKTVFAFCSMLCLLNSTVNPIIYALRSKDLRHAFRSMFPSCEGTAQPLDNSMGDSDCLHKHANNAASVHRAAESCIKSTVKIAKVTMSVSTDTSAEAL

SMILES | pEC50 [1] | +/− RCB2 (rat CB2 receptor (rCB2)) | pEC50 (rat CB2 receptor (rCB2)) | +/− HCB1 [1]
CNC(=O)[C@@H](NC(=O)c1nc(-c2ccc(C)cc2F)n2c1CN(C)CC2)C(C)(C)C [Compound 249, (S)-N-(3,3-dimethyl-1-(methylamino)-1-oxobutan-2-yl)-3-(2-fluoro-4-methylphenyl)-7-methyl-5,6,7,8-tetrahydroimidazo[1,5-a]pyrazine-1-carboxamide] | < 5.00 | − |  | 
CNC(=O)[C@@H](NC(=O)c1nc(-c2cc(F)ccc2F)n2c1CN(C)CC2)C(C)(C)C [Compound 250, (S)-3-(2,5-difluorophenyl)-N-(3,3-dimethyl-1-(methylamino)-1-oxobutan-2-yl)-7-methyl-5,6,7,8-tetrahydroimidazo[1,5-a]pyrazine-1-carboxamide] | < 5.00 |  | < 5.00 | 
CNC(=O)[C@@H](NC(=O)c1nc(-c2cc(C)ccc2F)n2c1CN(C)CC2)C(C)(C)C [Compound 251, (S)-N-(3,3-dimethyl-1-(methylamino)-1-oxobutan-2-yl)-3-(2-fluoro-5-methylphenyl)-7-methyl-5,6,7,8-tetrahydroimidazo[1,5-a]pyrazine-1-carboxamide] | < 5.00 | − |  | 
CNC(=O)[C@@H](NC(=O)c1nc(-c2cccnc2)n2c1CN(C)CC2)C(C)(C)C [Compound 252, (S)-N-(3,3-dimethyl-1-(methylamino)-1-oxobutan-2-yl)-7-methyl-3-(pyridin-3-yl)-5,6,7,8-tetrahydroimidazo[1,5-a]pyrazine-1-carboxamide] | < 5.00 | + |  | 
CNC(=O)[C@@H](NC(=O)c1nc(-c2ccccc2Cl)n2c1CN(C)CC2)C(C)(C)C [Compound 253, (S)-3-(2-chlorophenyl)-N-(3,3-dimethyl-1-(methylamino)-1-oxobutan-2-yl)-7-methyl-5,6,7,8-tetrahydroimidazo[1,5-a]pyrazine-1-carboxamide] | < 5.00 | + |  | 
CNC(=O)[C@@H](NC(=O)c1nc(-c2ccc(C#N)cc2)n2c1CN(C)CC2)C(C)(C)C [Compound 254, (S)-3-(4-cyanophenyl)-N-(3,3-dimethyl-1-(methylamino)-1-oxobutan-2-yl)-7-methyl-5,6,7,8-tetrahydroimidazo[1,5-a]pyrazine-1-carboxamide] | < 5.00 | − |  | 
CNC(=O)[C@@H](NC(=O)c1nc(-c2ccccc2C(F)(F)F)n2c1CN(C)CC2)C(C)(C)C [Compound 255, (S)-N-(3,3-dimethyl-1-(methylamino)-1-oxobutan-2-yl)-7-methyl-3-(2-(trifluoromethyl)phenyl)-5,6,7,8-tetrahydroimidazo[1,5-a]pyrazine-1-carboxamide] | < 5.00 | + |  | 
CNC(=O)[C@@H](NC(=O)c1nc(C2=CCCCC2)n2c1CN(C)CC2)C(C)(C)C [Compound 256] | < 5.00 | + |  | 
CNC(=O)[C@@H](NC(=O)c1nc(C=C(C)C)n2c1CN(C)CC2)C(C)(C)C [Compound 257, (S)-N-(3,3-dimethyl-1-(methylamino)-1-oxobutan-2-yl)-7-methyl-3-(2-methylprop-1-enyl)-5,6,7,8-tetrahydroimidazo[1,5-a]pyrazine-1-carboxamide] | < 5.00 | + |  | 
CNC(=O)[C@@H](NC(=O)c1nc(-c2ccccc2F)n2c1CN(C)CC2)C(C)(C)C [Compound 258, (S)-N-(3,3-dimethyl-1-(methylamino)-1-oxobutan-2-yl)-3-(2-fluorophenyl)-7-methyl-5,6,7,8-tetrahydroimidazo[1,5-a]pyrazine-1-carboxamide] | < 5.00 |  | < 5.00 | 
CNC(=O)[C@@H](NC(=O)c1nc(-c2ccccc2C#N)n2c1CN(C)CC2)C(C)(C)C [Compound 259, (S)-3-(2-cyanophenyl)-N-(3,3-dimethyl-1-(methylamino)-1-oxobutan-2-yl)-7-methyl-5,6,7,8-tetrahydroimidazo[1,5-a]pyrazine-1-carboxamide] | < 5.00 |  | < 5.00 | 
CNC(=O)[C@@H](NC(=O)c1nc(-c2cccc(C#N)c2)n2c1CN(C)CC2)C(C)(C)C [Compound 260, (S)-3-(3-cyanophenyl)-N-(3,3-dimethyl-1-(methylamino)-1-oxobutan-2-yl)-7-methyl-5,6,7,8-tetrahydroimidazo[1,5-a]pyrazine-1-carboxamide] | < 5.00 | − |  | 
CNC(=O)[C@@H](NC(=O)c1nc(-c2cccc(F)c2F)n2c1CN(C)CC2)C(C)(C)C [Compound 261, (S)-3-(2,3-difluorophenyl)-N-(3,3-dimethyl-1-(methylamino)-1-oxobutan-2-yl)-7-methyl-5,6,7,8-tetrahydroimidazo[1,5-a]pyrazine-1-carboxamide] | < 5.00 | + |  | 
CNC(=O)[C@@H](NC(=O)c1nc(-c2cc(F)cc(F)c2)n2c1CN(C)CC2)C(C)(C)C [Compound 262, (S)-3-(3,5-difluorophenyl)-N-(3,3-dimethyl-1-(methylamino)-1-oxobutan-2-yl)-7-methyl-5,6,7,8-tetrahydroimidazo[1,5-a]pyrazine-1-carboxamide] | < 5.00 | + |  | 
CNC(=O)[C@@H](NC(=O)c1nc(/C=C/C(C)(C)C)n2c1CN(C)CC2)C(C)(C)C [Compound 263, (S,E)-N-(3,3-dimethyl-1-(methylamino)-1-oxobutan-2-yl)-3-(3,3-dimethylbut-1-enyl)-7-methyl-5,6,7,8-tetrahydroimidazo[1,5-a]pyrazine-1-carboxamide] | < 5.00 | + |  | 
CNC(=O)[C@@H](NC(=O)c1nc(/C=C/COC)n2c1CN(C)CC2)C(C)(C)C [Compound 264, (S,E)-N-(3,3-dimethyl-1-(methylamino)-1-oxobutan-2-yl)-3-(3-methoxyprop-1-enyl)-7-methyl-5,6,7,8-tetrahydroimidazo[1,5-a]pyrazine-1-carboxamide] | < 5.00 | + |  | 
CNC(=O)[C@@H](NC(=O)c1nc(-c2ccc(-c3ccccc3)cc2)n2c1CN(C)CC2)C(C)(C)C [Compound 265, (S)-3-(biphenyl-4-yl)-N-(3,3-dimethyl-1-(methylamino)-1-oxobutan-2-yl)-7-methyl-5,6,7,8-tetrahydroimidazo[1,5-a]pyrazine-1-carboxamide] | < 5.00 | − |  | 
C=Cc1nc(C(=O)N[C@H](C(=O)NC)C(C)(C)C)c2n1CCN(C)C2 [Compound 266, (S)-N-(3,3-dimethyl-1-(methylamino)-1-oxobutan-2-yl)-7-methyl-3-vinyl-5,6,7,8-tetrahydroimidazo[1,5-a]pyrazine-1-carboxamide] | < 5.00 | − |  | 
C=C(C)c1nc(C(=O)N[C@H](C(=O)NC)C(C)(C)C)c2n1CCN(C)C2 [Compound 267, (S)-N-(3,3-dimethyl-1-(methylamino)-1-oxobutan-2-yl)-7-methyl-3-(prop-1-en-2-yl)-5,6,7,8-tetrahydroimidazo[1,5-a]pyrazine-1-carboxamide] | < 5.00 | + |  | 
CCC/C=C/c1nc(C(=O)N[C@H](C(=O)NC)C(C)(C)C)c2n1CCN(C)C2 [Compound 268, (S,E)-N-(3,3-dimethyl-1-(methylamino)-1-oxobutan-2-yl)-7-methyl-3-(pent-1-enyl)-5,6,7,8-tetrahydroimidazo[1,5-a]pyrazine-1-carboxamide] |  |  | < 5.00 | +
CNC(=O)[C@@H](NC(=O)c1nc(C2CC2)n2c1CN(C)CC2)C(C)(C)C [Compound 269, (S)-3-cyclopropyl-N-(3,3-dimethyl-1-(methylamino)-1-oxobutan-2-yl)-7-methyl-5,6,7,8-tetrahydroimidazo[1,5-a]pyrazine-1-carboxamide] |  | + |  | +
CNC(=O)[C@@H](NC(=O)c1nc(C2=CCC(C)CC2)n2c1CN(C)CC2)C(C)(C)C (stereo partly drawn) [Compound 270, N-((S)-3,3-dimethyl-1-(methylamino)-1-oxobutan-2-yl)-7-methyl-3-(4-methylcyclohex-1-enyl)-5,6,7,8-tetrahydroimidazo[1,5-a]pyrazine-1-carboxamide] | < 5.00 | − |  | 
CNC(=O)[C@@H](NC(=O)c1nc(C2=CCC(C(C)(C)C)CC2)n2c1CN(C)CC2)C(C)(C)C (stereo partly drawn) [Compound 271, 3-(4-tert-butylcyclohex-1-enyl)-N-((S)-3,3-dimethyl-1-(methylamino)-1-oxobutan-2-yl)-7-methyl-5,6,7,8-tetrahydroimidazo[1,5-a]pyrazine-1-carboxamide] |  | + |  | +
CNC(=O)[C@@H](NC(=O)c1nc(C2=CCCCCC2)n2c1CN(C)CC2)C(C)(C)C [Compound 272, (S,E)-3-cycloheptenyl-N-(3,3-dimethyl-1-(methylamino)-1-oxobutan-2-yl)-7-methyl-5,6,7,8-tetrahydroimidazo[1,5-a]pyrazine-1-carboxamide] |  | + |  | +
CNC(=O)[C@@H](NC(=O)c1nc(/C=C/C2CC2)n2c1CN(C)CC2)C(C)(C)C [Compound 273, (S,E)-3-(2-cyclopropylvinyl)-N-(3,3-dimethyl-1-(methylamino)-1-oxobutan-2-yl)-7-methyl-5,6,7,8-tetrahydroimidazo[1,5-a]pyrazine-1-carboxamide] | < 5.00 |  | < 5.00 | 
CNC(=O)[C@@H](NC(=O)c1nc(C2=CCNCC2)n2c1CN(C)CC2)C(C)(C)C [Compound 274, (S)-N-(3,3-dimethyl-1-(methylamino)-1-oxobutan-2-yl)-7-methyl-3-(1,2,3,6-tetrahydropyridin-4-yl)-5,6,7,8-tetrahydroimidazo[1,5-a]pyrazine-1-carboxamide] |  | − |  | +
